Experimental data: US8614236B2 (University of Washington, priority 2006, dated 2013)
Several values for one entry are separate records, joined by “and”; a condition that tells them apart may be missing. Equal entries are not always repeated.

Columns and labels:
Beagle dogs [1] = assay: Dog study: arterial blood gases, ventilation and acid-base status in normoxia and hypoxia; type: in vivo
Text: The dogs were kept under highly standardized conditions and received a standardized diet five days before the experiments. […] To permit spontaneous breathing through a low resistance circuit, a face mask was attached, which enclosed the dog's snout in a leak proof fashion. This custom made mask is equipped with a 2.5 cm ID connector to connect it to a ventilator set to CPAP mode (3 4 cmH20) (Servo900C; Siemens-Elema, Erlangen/Germany).
(§1) Six dogs were studied in five different protocols in randomized order:
5) Ethoxzolamide (Sigma-Aldrich, Steinheim/Germany) intravenously: Bolus ethoxzolamide (1 mg/kg), followed by a continuous infusion of 1 mg·kg^−1·h^−1.
The hemodynamic measurements (arterial blood pressure, heart rate, central venous pressure, pulmonary artery pressure, pulmonary capillary wedge pressure), minute ventilation, renal function data, time points for blood samples for blood gases, actual bicarbonate, base excess, plasma electrolytes and hormones, measurements of plasma and urinary values were according to former studies.
(§2) Values are given as means±SEM (n=6). For intra-group comparisons a general linear model of analysis of variance (GLM-ANOVA) for repeated measures was applied (NCSS97/PASS 2000, Saugus/MA, USA). Post-hoc testing of means was performed with Student's t-test. Level of significance for error of first order was adjusted according to Holm's procedure. Statistical significance was assumed at p<0.05.

PASMCs = assay: Basal intracellular Ca2+ concentration in PASMCs (Fura-2); type: cell-based, rat; details: for basal [Ca^2+]i, Treatment: 100 μM, after 10 min of perfusion; for effect on resting [Ca^2+]i: 10-100 μM; for basal [Ca^2+]i, Baseline: before perfusion with the compound
Method: Intrapulmonary arteries (200-600 μm o.d.) were isolated from male Wistar rats (250-350 g) and cleaned of connective tissue. After the lumen was gently rubbed with a cotton swab to remove the endothelial cells, the arteries were allowed to recover for 30 minutes in cold (4° C.) HBSS containing (in mM): 130 NaCl, 5 KCl, 1.2 MgCl2, 1.5 CaCl2, 10 N-[2-hydroxyethyl]piperazine-N′-[2-ethanesulfonic acid] (HEPES) and 10 glucose, with pH adjusted to 7.2 with 5 M NaOH, followed by 20 minutes in reduced-Ca^2+ (20 μM CaCl2) HBSS at room temperature. […] Following digestion, single smooth muscle cells were dispersed by gentle trituration with a wide-bore transfer pipette in Ca^2+-free HBSS and the cell suspension was placed on 25 mm glass cover slips. PASMCs were transiently cultured in Ham's-F-12 media supplemented with 0.5% fetal bovine serum and 1% penicillin/streptomycin for 24-48 hrs. before study.
Acute hypoxia increases intracellular [Ca^2+] in pulmonary arterial smooth muscle by enhancing capacitative Ca^2+ entry. […] Ratiometric measurement of fluorescence from the dye was performed on a workstation (Intracellular Imaging Inc, Cincinnati, Ohio) consisting of a Nikon TSE 100 Ellipse inverted microscope with epi-fluorescence attachments. The light beam from a xenon arc lamp was filtered at 340 and 380 nm, and focused onto the PASMCS under examination via a 20× fluorescence objective (Super Fluor 20, Nikon). Light emitted from the cell at 510 nm was returned through the objective and detected by a cooled CCD imaging camera. An electronic shutter (Sutter Instruments) was used to minimize photobleaching of dye. Protocols were executed and data collected on-line with InCyte software (Intracellular Imaging Inc). [Ca^2+]i was estimated from in vitro calibration solutions.

Beagle dogs [2] = assay: Dog study: plasma hormones, electrolytes and renal function; type: in vivo; details: for plasma renin activity: both acetazolamide protocols (iv, po)
Method: A total of 30 experiments were performed on six female Beagle dogs (body wt 14.3±0.3 kg). The dogs were kept under highly standardized conditions and received a standardized diet five days before the experiments. The preparation and catheterization of the conscious dog were performed according to former experiments as in Höhne C., et al., J Appl Physiol (2004), which is hereby incorporated by reference in its entirety. To permit spontaneous breathing through a low resistance circuit, a face mask was attached, which enclosed the dog's snout in a leak proof fashion. This custom made mask is equipped with a 2.5 cm ID connector to connect it to a ventilator set to CPAP mode (3 4 cmH20) (Servo900C; Siemens-Elema, Erlangen/Germany).
as §1
4) Benzolamide intravenously: Bolus (2 mg/kg), followed by a continuous infusion of 2 mg·kg^−1·h^−1, a dosage which inhibits only renal and vascular endothelial extracellular CA, without affecting red cell CA as in Travis D. M., et al. J Pharmacol Exp Ther (1964), which is hereby incorporated by reference in its entirety. 5) Ethoxzolamide (Sigma-Aldrich, Steinheim/Germany) intravenously: Bolus ethoxzolamide (1 mg/kg), followed by a continuous infusion of 1 mg·kg^−1·h^−1.
In control experiments, the dogs breathed room air (21% O2, 79% N2; normoxia) for one hour, followed by breathing a gas mixture containing 10% O2 and 90% N2 for two hours (hypoxia). The time course was the same for the CA inhibitor experiments, but F1O2 was reduced to 0.09 during the hypoxia period to match the arterial and alveolar PO2 of the control dogs, which otherwise would have been higher on 10% O2 as a result of the known ventilatory stimulant effect of all CA inhibitors. See Höhne C., et al., J Appl Physiol 97:515-521 (2004), which is hereby incorporated by reference in its entirety. The hemodynamic measurements (arterial blood pressure, heart rate, central venous pressure, pulmonary artery pressure, pulmonary capillary wedge pressure), minute ventilation, renal function data, time points for blood samples for blood gases, actual bicarbonate, base excess, plasma electrolytes and hormones, measurements of plasma and urinary values were according to former studies. See Höhne C., et al., J Appl Physiol 90:1842-1848 (2001), which is hereby incorporated by reference in its entirety.
as §2

[3] = iv bolus + continuous infusion, hypoxia 2nd h
[4] = iv bolus + continuous infusion, hypoxia 3rd h
[5] = iv bolus + continuous infusion, normoxia 1st h
[6] = po 5 mg/kg 12 and 1 hr before, hypoxia 2nd h
[7] = po 5 mg/kg 12 and 1 hr before, hypoxia 3rd h
[8] = po 5 mg/kg 12 and 1 hr before, normoxia 1st h

SMILES: CC(=O)Nc1nnc(S(N)(=O)=O)s1 [AZ, acetazolamide]
- BEa, arterial base excess (Beagle dogs [1]; [3]): -4.0 ± 0.3 mM
- HCO3a, arterial actual bicarbonate concentration (Beagle dogs [1]; [3]): 19.0 ± 0.4 mM
- PaCO2, arterial carbon dioxide tension (Beagle dogs [1]; [3]): 30 ± 1 Torr
- PaO2, arterial oxygen tension (Beagle dogs [1]; [3]): 37 ± 1 Torr
- VE, minute ventilation (Beagle dogs [1]; [3]): 5.8 ± 0.6 L/min
- BEa, arterial base excess (Beagle dogs [1]; [4]): -5.6 ± 0.5 mM
- HCO3a, arterial actual bicarbonate concentration (Beagle dogs [1]; [4]): 17.5 ± 0.5 mM
- PaCO2, arterial carbon dioxide tension (Beagle dogs [1]; [4]): 28 ± 1 Torr
- PaO2, arterial oxygen tension (Beagle dogs [1]; [4]): 39 ± 1 Torr
- VE, minute ventilation (Beagle dogs [1]; [4]): 7.0 ± 0.6 L/min
- BEa, arterial base excess (Beagle dogs [1]; [5]): -3.1 ± 0.5 mM
- HCO3a, arterial actual bicarbonate concentration (Beagle dogs [1]; [5]): 20.9 ± 0.6 mM
- PaCO2, arterial carbon dioxide tension (Beagle dogs [1]; [5]): 34 ± 1 Torr
- PaO2, arterial oxygen tension (Beagle dogs [1]; [5]): 106 ± 3 Torr
- VE, minute ventilation (Beagle dogs [1]; [5]): 4.0 ± 0.3 L/min
- BEa, arterial base excess (Beagle dogs [1]; [6]): -5.8 ± 0.4 mM
- HCO3a, arterial actual bicarbonate concentration (Beagle dogs [1]; [6]): 17.6 ± 0.6 mM
- PaCO2, arterial carbon dioxide tension (Beagle dogs [1]; [6]): 29 ± 1 Torr
- PaO2, arterial oxygen tension (Beagle dogs [1]; [6]): 37 ± 1 Torr
- VE, minute ventilation (Beagle dogs [1]; [6]): 5.9 ± 0.2 L/min
- BEa, arterial base excess (Beagle dogs [1]; [7]): -6.5 ± 0.4 mM
- PaCO2, arterial carbon dioxide tension (Beagle dogs [1]; [7]): 27 ± 1 Torr
- PaO2, arterial oxygen tension (Beagle dogs [1]; [7]): 38 ± 1 Torr
- VE, minute ventilation (Beagle dogs [1]; [7]): 6.1 ± 0.2 L/min
- BEa, arterial base excess (Beagle dogs [1]; [8]): -7.2 ± 0.6 mM
- HCO3a, arterial actual bicarbonate concentration (Beagle dogs [1]; [8]): 17.1 ± 0.7 mM
- PaCO2, arterial carbon dioxide tension (Beagle dogs [1]; [8]): 32 ± 1 Torr
- PaO2, arterial oxygen tension (Beagle dogs [1]; [8]): 108 ± 2 Torr
- VE, minute ventilation (Beagle dogs [1]; [8]): 4.5 ± 0.3 L/min
- pHa, arterial pH (Beagle dogs [1]; [8]): 7.34 ± 0.01
- basal [Ca^2+]i, Treatment (PASMCs): 150.0 ± 9.6 nM and 155.0 ± 9.6 nM
- effect on resting [Ca^2+]i (PASMCs): no effect
- basal [Ca^2+]i, Baseline (PASMCs): 159.6 ± 10.8 nM
- plasma renin activity (Beagle dogs [2]; hypoxia): 5 to 5.6 ng/mL/h
- plasma renin activity (Beagle dogs [2]; normoxia): 2.9 to 3.2 ng/mL/h
- reduction of glomerular filtration rate vs controls (Beagle dogs [2]; iv 2 mg/kg + 2 mg/kg/h, non-significant): 12%
- GFR, glomerular filtration rate (Beagle dogs [2]; [3]): 3.3 ± 0.1 mL/min/kg
- PK, plasma potassium concentration (Beagle dogs [2]; [3]): 2.8 ± 0.1 mM
- UV, urine volume (Beagle dogs [2]; [3]): 0.161 ± 0.022 mL/min/kg
- GFR, glomerular filtration rate (Beagle dogs [2]; [4]): 3.4 ± 0.2 mL/min/kg
- PK, plasma potassium concentration (Beagle dogs [2]; [4]): 2.8 ± 0.1 mM
- UV, urine volume (Beagle dogs [2]; [4]): 0.071 ± 0.01 mL/min/kg
- GFR, glomerular filtration rate (Beagle dogs [2]; [5]): 3.4 ± 0.1 mL/min/kg
- PK, plasma potassium concentration (Beagle dogs [2]; [5]): 3.0 ± 0.1 mM
- UV, urine volume (Beagle dogs [2]; [5]): 0.099 ± 0.013 mL/min/kg
- GFR, glomerular filtration rate (Beagle dogs [2]; [6]): 3.4 ± 0.3 mL/min/kg
- PK, plasma potassium concentration (Beagle dogs [2]; [6]): 2.9 ± 0.1 mM
- UKV, urinary potassium concentration (Beagle dogs [2]; [6]): 1.6 ± 0.3 µmol/min/kg
- UV, urine volume (Beagle dogs [2]; [6]): 0.083 ± 0.024 mL/min/kg
- urinary excretion rate (potassium in 2.2, sodium in 2.3) (Beagle dogs [2]; [6]): 1.6 ± 0.3 µmol/min/kg
- GFR, glomerular filtration rate (Beagle dogs [2]; [7]): 3.3 ± 0.2 mL/min/kg
- PK, plasma potassium concentration (Beagle dogs [2]; [7]): 2.9 ± 0.1 mM
- UKV, urinary potassium concentration (Beagle dogs [2]; [7]): 1.6 ± 0.4 µmol/min/kg
- UV, urine volume (Beagle dogs [2]; [7]): 0.048 ± 0.011 mL/min/kg
- urinary excretion rate (potassium in 2.2, sodium in 2.3) (Beagle dogs [2]; [7]): 1.3 ± 0.1 µmol/min/kg
- GFR, glomerular filtration rate (Beagle dogs [2]; [8]): 3.1 ± 0.2 mL/min/kg
- PK, plasma potassium concentration (Beagle dogs [2]; [8]): 2.9 ± 0.1 mM
- UV, urine volume (Beagle dogs [2]; [8]): 0.057 ± 0.011 mL/min/kg

SMILES: NS(=O)(=O)c1nnc(NS(=O)(=O)c2ccccc2)s1 [BZ, benzolamide]
- BEa, arterial base excess (Beagle dogs [1]; [3]): -4.4 ± 0.4 mM
- HCO3a, arterial actual bicarbonate concentration (Beagle dogs [1]; [3]): 18.4 ± 0.3 mM
- PaCO2, arterial carbon dioxide tension (Beagle dogs [1]; [3]): 30 ± 1 Torr
- PaO2, arterial oxygen tension (Beagle dogs [1]; [3]): 37 ± 1 Torr
- VE, minute ventilation (Beagle dogs [1]; [3]): 4.4 ± 0.5 L/min
- pHa, arterial pH (Beagle dogs [1]; [3]): 7.41 ± 0.01
- BEa, arterial base excess (Beagle dogs [1]; [4]): -4.9 ± 0.4 mM
- HCO3a, arterial actual bicarbonate concentration (Beagle dogs [1]; [4]): 17.7 ± 0.4 mM
- PaCO2, arterial carbon dioxide tension (Beagle dogs [1]; [4]): 29 ± 1 Torr
- PaO2, arterial oxygen tension (Beagle dogs [1]; [4]): 38 ± 1 Torr
- VE, minute ventilation (Beagle dogs [1]; [4]): 5.1 ± 0.6 L/min
- pHa, arterial pH (Beagle dogs [1]; [4]): 7.42 ± 0.01
- BEa, arterial base excess (Beagle dogs [1]; [5]): -4.4 ± 0.4 mM
- HCO3a, arterial actual bicarbonate concentration (Beagle dogs [1]; [5]): 20.1 ± 0.3 mM
- PaCO2, arterial carbon dioxide tension (Beagle dogs [1]; [5]): 37 ± 1^ Torr
- PaO2, arterial oxygen tension (Beagle dogs [1]; [5]): 96 ± 1^ Torr
- VE, minute ventilation (Beagle dogs [1]; [5]): 3.0 ± 0.2 L/min
- pHa, arterial pH (Beagle dogs [1]; [5]): 7.35 ± 0.01
- basal [Ca^2+]i, Treatment (PASMCs): 120.7 ± 7.7 nM
- effect on resting [Ca^2+]i (PASMCs): neither EZ nor BZ altered
- basal [Ca^2+]i, Baseline (PASMCs): 113.4 ± 7.4 nM
- plasma renin activity during hypoxia (Beagle dogs [2]; iv bolus + continuous infusion): did not change
- GFR, glomerular filtration rate (Beagle dogs [2]; [3]): 3.0 ± 0.2 mL/min/kg
- PK, plasma potassium concentration (Beagle dogs [2]; [3]): 2.9 ± 0.1 mM
- UV, urine volume (Beagle dogs [2]; [3]): 0.104 ± 0.023 mL/min/kg
- GFR, glomerular filtration rate (Beagle dogs [2]; [4]): 3.2 ± 0.2 mL/min/kg
- PK, plasma potassium concentration (Beagle dogs [2]; [4]): 2.8 ± 0.1 mM
- UV, urine volume (Beagle dogs [2]; [4]): 0.065 ± 0.015 mL/min/kg
- GFR, glomerular filtration rate (Beagle dogs [2]; [5]): 2.9 ± 0.2 mL/min/kg
- PK, plasma potassium concentration (Beagle dogs [2]; [5]): 3.0 ± 0.1 mM
- UV, urine volume (Beagle dogs [2]; [5]): 0.066 ± 0.007 mL/min/kg
